{
  "source": "patent US5371102A",
  "about": "“Compositions and methods of inhibiting thyroid activity” (priority 1993, dated 1994)",
  "key": {"[1]": {"assay": "reaction of DMMBI with preformed triiodide", "conditions": "triiodide formed by H2O2, LPX and iodide ion", "excerpt": "When triiodide ion was formed by addition of hydrogen peroxide to LPX and iodide ion, addition of DMMBI caused rapid quenching of triiodide (ca. 1 sec) and DMeBI^+ was the sole product. Triiodide produced by addition of […] to aqueous iodide ion reacted identically with DMMBI."}, "LPX [2]": {"biological_target": "T1, LPX (Bos taurus, UniProt P80025)", "T1 construct": "purchased Sigma Chemical Company", "assay": "LPX-mediated oxidative turnover of DMMBI and hydroperoxide", "assay_type": "biochemical, bovine", "excerpt": "Materials used in the examples below were obtained from the following sources. Bovine LPX, bovine liver catalase, glucose oxidase, 30% hydrogen peroxide, glucose, guaiacol, ABTS and deuterium oxide were purchased from Sigma Chemical Company. Selenium dioxide, MBI ^13 CH3 I and PBA were purchased from Aldrich Chemical Company and PBA was purified as previously described by Fieset et al., Reagents for Organic Synthesis, Vol. I, pp.135-139, John Wiley and Sons, N.Y. (1967). LPX purity was checked by PAGE, as described by Doerge, D.R., et al. in, Biochem. Pharmacol., Vol.36, pp.972-974 (1986). TPX was purified from hog thyroids obtained from a local slaughterhouse by published procedures. Doerge & Takazowa, Chemical Research in Toxicology, Vol. 3, pp. 98-101 (1990). TPX purity was determined by LC and its concentration determined spectophotometrically. Hydroperoxide concentrations were determined by iodometric titration, as described by Kolthoff, et al., in \"Quantitative Chemical Analysis\", Macmillan, London, pp.842-860 (1969). MMBI, and BI were synthesized by published procedures as described by Doerge, D.R., Biochem, Vol. 27, pp. 3697-3700 (1988) and were recrystallized from aqueous ethanol. MeBI was purified by distillation and DMeBI^+ was synthesized and purified by recrystallization from ethyl acetate/methanol. 1-^13 C-MMBI was synthesized from ^13 CH3 I according to the procedure disclosed by Doerge, D.R., in, J. Lab. Comp. and Radiopharm., Vol.25, pp.985-990 (1988). PPHP and PPA were prepared, purified and analyzed as previously described by Doerge, Biochem, Vol.27, p.11 (1988). The methyl ester of 1-methyl-benzimidazole-2-sulfinic acid was prepared by addition of hydrogen peroxide (5 equivalents of a 10 M solution) to MMBI (0.1 M) in methanol. The products, MeBI and the ester, were obtained following preparative TLC on silica (Uniplate, Analtech Co., Newark, DL) using 5% methanol/chloroform as eluant.\nThe distinct methyl and aromatic proton resonances of DMMBI and DMeBI^+ in the ^1 H-NMR spectrum provide a sensitive method to detect enzymatic transformation of DMMBI. DMMBI (100 μM) was incubated with LPX (50 μM), iodide ion (5 mM) and hydrogen peroxide (300 μM) in 10 mls of 0.01 M phosphate buffer solution, pH 7.0. The solution was incubated at 25° C. for 1 min followed by addition of catalase. The sample was then lyophilized and analyzed by ^1 H-NMR. The solids were dissolved in 1 ml D2 O and lyophilized again. Proton-deuterium exchange was repeated twice more and the solids were dissolved in 0.5 ml D2 O containing DSS. The HOD peak was suppressed in a one pulse presaturation experiment where the HOD peak was irradiated for 2 sec prior to acquisition of sample resonances. The ^1 H-NMR spectra of DMeBI^+ and DMMBI were similarly recorded in D2 O.\nPPHP is a chromophoric hydroperoxide interchangeable with hydrogen peroxide in many peroxidase-catalyzed reactions. LPX-catalyzed turnover of PPHP gives PPA, the corresponding alcohol, which can be quantitated by HPLC. The use of PPHP permits a direct correlation of LPX-catalyzed substrate consumption and product formation with actual hydroperoxide turnover."}, "[3]": {"assay": "kinetics of thione oxygenation by hydrogen peroxide/TFA", "assay_type": "physicochemical", "conditions": "thione 25 μM, H2O2 34 mM, TFA 163 mM in methanol, 25° C.; relative to DMMBI", "experimental": "The kinetics of thione oxygenation were determined for MBI, MMBI and DMMBI. Oxygenation by hydrogen peroxide/TFA was measured spectrophotometrically (305 nm) at 25° C. by addition of thione (final concentration 25 μM) to hydrogen peroxide (34 mM) and TFA (163 mM) in methanol."}, "LPX [4]": {"biological_target": "T1, LPX", "assay": "LPX-catalyzed oxidation of guaiacol or ABTS", "assay_type": "biochemical, bovine", "conditions": "LPX plus hydrogen peroxide", "excerpt": "Materials used in the examples below were obtained from the following sources. Bovine LPX, bovine liver catalase, glucose oxidase, 30% hydrogen peroxide, glucose, guaiacol, ABTS and deuterium oxide were purchased from Sigma Chemical Company. Selenium dioxide, MBI ^13 CH3 I and PBA were purchased from Aldrich Chemical Company and PBA was purified as previously described by Fieset et al., Reagents for Organic Synthesis, Vol. I, pp.135-139, John Wiley and Sons, N.Y. (1967). LPX purity was checked by PAGE, as described by Doerge, D.R., et al. in, Biochem. Pharmacol., Vol.36, pp.972-974 (1986). TPX was purified from hog thyroids obtained from a local slaughterhouse by published procedures. Doerge & Takazowa, Chemical Research in Toxicology, Vol. 3, pp. 98-101 (1990). TPX purity was determined by LC and its concentration determined spectophotometrically. Hydroperoxide concentrations were determined by iodometric titration, as described by Kolthoff, et al., in \"Quantitative Chemical Analysis\", Macmillan, London, pp.842-860 (1969). […] PPHP and PPA were prepared, purified and analyzed as previously described by Doerge, Biochem, Vol.27, p.11 (1988). […]\nInhibition of LPX activity by thiones was determined from the kinetics of iodide ion, guaiacol or ABTS oxidation assays conducted at 25° C. Kinetic parameters of suicide inactivation were determined as previously described. […]"}, "[5]": {"conditions": "PPHP-supported LPX-catalyzed iodination"}},
  "note": "“Also recorded” adds a separate entry of the source.",
  "data": [
    {"compound": "Cn1c(=S)n(C)c2ccccc21", "note": "[DMMBI, 1,3-dimethylbenzimidazole-2-thione]", "values": [
      {"measurement": "time of triiodide quenching", "setting": "[1]", "value": "ca. 1 sec"},
      {"measurement": "conversion of DMMBI to DMeBI+", "setting": "LPX [2]; LPX, 3 equivalents H2O2 and iodide ion", "value": "quantitative conversion of DMMBI to DMeBI^+"},
      {"measurement": "turnover events without LPX inactivation", "setting": "LPX [2]; LPX, hydrogen peroxide and iodide ion", "value": "> 300", "unit": "turnover events"},
      {"measurement": "moles of PPA formed per mole of DMMBI consumed", "setting": "LPX [2]; [5]", "value": "3.2 ± 0.2", "unit": "mol"},
      {"measurement": "moles of PPHP consumed per mole of DMMBI consumed", "setting": "LPX [2]; [5]", "value": 3.2, "unit": "mol"},
      {"measurement": "conversion of DMMBI to DMeBI+", "setting": "LPX [2]; controls: no iodide ion, no LPX or no hydrogen peroxide", "value": "no conversion of DMMBI to DMeBI^+ was observed"},
      {"measurement": "relative rate of oxygenation", "setting": "[3]", "value": 1},
      {"measurement": "effect on rate of enzymatic oxidation of guaiacol or ABTS", "setting": "LPX [4]", "value": "did not reduce the rate of enzymatic oxidation; also recorded: does not affect LPX or TPX/hydrogen peroxide-catalyzed oxidation of the substrates ABTS and guaiacol"}
    ]}
  ]
}
